Experimental data published in ChEMBL document CHEMBL1255419, “Pharmacokinetic-pharmacodynamic assessment of faropenem in a lethal murine Bacillus anthracis inhalation postexposure prophylaxis model” (Antimicrob Agents Chemother, 2010).
Values after ≈ are worked out from the molar mass of the structure shown.

Key:
Format in all cases: functional
Bacillus anthracis [1] = experiment: microbe, parasite or virus in culture
Bacillus anthracis [2] = experiment: microbe, parasite or virus in culture; remark: listed apart in the source
Bacillus anthracis [3] = experiment: microbe, parasite or virus in culture; remark: listed apart in the source
Bacillus anthracis [4] = experiment: microbe, parasite or virus in culture; remark: listed apart in the source
Bacillus anthracis [5] = experiment: microbe, parasite or virus in culture; remark: listed apart in the source
Bacillus anthracis [6] = experiment: microbe, parasite or virus in culture; remark: listed apart in the source
Bacillus anthracis [7] = experiment: microbe, parasite or virus in culture; remark: listed apart in the source
Bacillus anthracis [8] = experiment: microbe, parasite or virus in culture; remark: listed apart in the source
Bacillus anthracis [9] = experiment: microbe, parasite or virus in culture; remark: listed apart in the source
Bacillus anthracis [10] = experiment: microbe, parasite or virus in culture; remark: listed apart in the source
Bacillus anthracis [11] = experiment: microbe, parasite or virus in culture; remark: listed apart in the source
Bacillus anthracis [12] = experiment: microbe, parasite or virus in culture; remark: listed apart in the source
Bacillus anthracis [13] = experiment: microbe, parasite or virus in culture; remark: listed apart in the source
Bacillus anthracis [14] = experiment: Antibacterial activity against beta-lactamase Bla1 and Bla2-producing Bacillus anthracis Sterne by broth microdilution method
Bacillus anthracis [15] = experiment: microbe, parasite or virus in culture; remark: listed apart in the source
Bacillus anthracis [16] = experiment: microbe, parasite or virus in culture; remark: listed apart in the source
Bacillus anthracis [17] = experiment: microbe, parasite or virus in culture; remark: listed apart in the source
Bacillus anthracis [18] = experiment: microbe, parasite or virus in culture; remark: listed apart in the source
Bacillus anthracis [19] = experiment: microbe, parasite or virus in culture; remark: listed apart in the source
Bacillus anthracis [20] = experiment: microbe, parasite or virus in culture; remark: listed apart in the source
Bacillus anthracis [21] = experiment: microbe, parasite or virus in culture; remark: listed apart in the source
Bacillus anthracis [22] = experiment: microbe, parasite or virus in culture; remark: listed apart in the source
Bacillus anthracis [23] = experiment: microbe, parasite or virus in culture; remark: listed apart in the source
Bacillus anthracis [24] = experiment: microbe, parasite or virus in culture; remark: listed apart in the source
Bacillus anthracis [25] = experiment: microbe, parasite or virus in culture; remark: listed apart in the source
Bacillus anthracis [26] = experiment: microbe, parasite or virus in culture; remark: listed apart in the source
Bacillus anthracis [27] = experiment: microbe, parasite or virus in culture; remark: listed apart in the source
Bacillus anthracis [28] = experiment: microbe, parasite or virus in culture; remark: listed apart in the source
Bacillus anthracis [29] = experiment: microbe, parasite or virus in culture; remark: listed apart in the source

SMILES	MIC (Bacillus anthracis [1]) [µg/mL]	MIC (Bacillus anthracis [2]) [µg/mL]	MIC (Bacillus anthracis [3]) [µg/mL]	MIC (Bacillus anthracis [4]) [µg/mL]	MIC (Bacillus anthracis [5]) [µg/mL]	MIC (Bacillus anthracis [6]) [µg/mL]	MIC (Bacillus anthracis [7]) [µg/mL]	MIC (Bacillus anthracis [8]) [µg/mL]	MIC (Bacillus anthracis [9]) [µg/mL]	MIC (Bacillus anthracis [10]) [µg/mL]	MIC (Bacillus anthracis [11]) [µg/mL]	MIC (Bacillus anthracis [12]) [µg/mL]	MIC (Bacillus anthracis [13]) [µg/mL]	MIC (Bacillus anthracis [14]) [µg/mL]	MIC (Bacillus anthracis [15]) [µg/mL]	MIC (Bacillus anthracis [16]) [µg/mL]	MIC (Bacillus anthracis [17]) [µg/mL]	MIC (Bacillus anthracis [18]) [µg/mL]	MIC (Bacillus anthracis [19]) [µg/mL]	MIC (Bacillus anthracis [20]) [µg/mL]	also measured
CC[C@H]1OC(=O)[C@H](C)[C@@H](O[C@H]2C[C@@](C)(OC)[C@@H](O)[C@H](C)O2)[C@H](C)[C@@H](O[C@@H]2O[C@H](C)C[C@H](N(C)C)[C@H]2O)[C@](C)(O)C[C@@H](C)CN(C)[C@H](C)[C@@H](O)[C@]1(C)O [AZITHROMYCIN]	4 (≈ 5.34 µM)	4 (≈ 5.34 µM)	2 (≈ 2.67 µM)	4 (≈ 5.34 µM)	4 (≈ 5.34 µM)	2 (≈ 2.67 µM)	2 (≈ 2.67 µM)	4 (≈ 5.34 µM)	4 (≈ 5.34 µM)	4 (≈ 5.34 µM)	2 (≈ 2.67 µM)	4 (≈ 5.34 µM)	2 (≈ 2.67 µM)	2 (≈ 2.67 µM)	4 (≈ 5.34 µM)	4 (≈ 5.34 µM)	2 (≈ 2.67 µM)	4 (≈ 5.34 µM)	4 (≈ 5.34 µM)	1 (≈ 1.34 µM)	MIC (Bacillus anthracis [21]): 4 µg/mL (≈ 5.34 µM); MIC (Bacillus anthracis [22]): 4 µg/mL (≈ 5.34 µM); MIC (Bacillus anthracis [23]): 4 µg/mL (≈ 5.34 µM); MIC (Bacillus anthracis [24]): 4 µg/mL (≈ 5.34 µM); MIC (Bacillus anthracis [25]): 4 µg/mL (≈ 5.34 µM); MIC (Bacillus anthracis [26]): 2 µg/mL (≈ 2.67 µM); MIC (Bacillus anthracis [27]): 2 µg/mL (≈ 2.67 µM); MIC (Bacillus anthracis [28]): 4 µg/mL (≈ 5.34 µM); MIC (Bacillus anthracis [29]): 4 µg/mL (≈ 5.34 µM)
CC1(C)S[C@@H]2[C@H](NC(=O)Cc3ccccc3)C(=O)N2[C@H]1C(=O)O [PENICILLIN G]	2 (≈ 5.98 µM)	2 (≈ 5.98 µM)	2 (≈ 5.98 µM)	8 (≈ 23.9 µM)	32 (≈ 95.7 µM)	8 (≈ 23.9 µM)	4 (≈ 12 µM)	2 (≈ 5.98 µM)	1 (≈ 2.99 µM)	2 (≈ 5.98 µM)	4 (≈ 12 µM)	1 (≈ 2.99 µM)	1 (≈ 2.99 µM)	4 (≈ 12 µM)	2 (≈ 5.98 µM)	2 (≈ 5.98 µM)	4 (≈ 12 µM)	2 (≈ 5.98 µM)	2 (≈ 5.98 µM)	1 (≈ 2.99 µM)	MIC (Bacillus anthracis [21]): 1 µg/mL (≈ 2.99 µM); MIC (Bacillus anthracis [22]): 1 µg/mL (≈ 2.99 µM); MIC (Bacillus anthracis [23]): 1 µg/mL (≈ 2.99 µM); MIC (Bacillus anthracis [24]): 4 µg/mL (≈ 12 µM); MIC (Bacillus anthracis [25]): 4 µg/mL (≈ 12 µM); MIC (Bacillus anthracis [26]): 4 µg/mL (≈ 12 µM); MIC (Bacillus anthracis [27]): 8 µg/mL (≈ 23.9 µM); MIC (Bacillus anthracis [28]): 2 µg/mL (≈ 5.98 µM); MIC (Bacillus anthracis [29]): 2 µg/mL (≈ 5.98 µM)
C[C@H]1c2cccc(O)c2C(=O)C2=C(O)[C@]3(O)C(=O)C(C(N)=O)=C(O)[C@@H](N(C)C)[C@@H]3[C@@H](O)[C@@H]21.O [DOXYCYCLINE]	≤ 0.06	≤ 0.06	≤ 0.06	≤ 0.06	≤ 0.06	≤ 0.06	≤ 0.06	≤ 0.06	≤ 0.06	≤ 0.06	≤ 0.06	≤ 0.06	≤ 0.06	≤ 0.06	≤ 0.06	≤ 0.06	≤ 0.06	≤ 0.06	0.25	≤ 0.06	MIC (Bacillus anthracis [21]): ≤ 0.06 µg/mL; MIC (Bacillus anthracis [22]): ≤ 0.06 µg/mL; MIC (Bacillus anthracis [23]): ≤ 0.06 µg/mL; MIC (Bacillus anthracis [24]): ≤ 0.06 µg/mL; MIC (Bacillus anthracis [25]): ≤ 0.06 µg/mL; MIC (Bacillus anthracis [26]): ≤ 0.06 µg/mL; MIC (Bacillus anthracis [27]): ≤ 0.06 µg/mL; MIC (Bacillus anthracis [28]): ≤ 0.06 µg/mL; MIC (Bacillus anthracis [29]): ≤ 0.06 µg/mL
CN(C)[C@@H]1C(O)=C(C(N)=O)C(=O)[C@@]2(O)C(O)=C3C(=O)c4c(O)cccc4[C@@](C)(O)[C@H]3C[C@@H]12 [TETRACYCLINE]	≤ 0.06	≤ 0.06	≤ 0.06	≤ 0.06	≤ 0.06	≤ 0.06	≤ 0.06	≤ 0.06	≤ 0.06	≤ 0.06	≤ 0.06	≤ 0.06	≤ 0.06	≤ 0.06	≤ 0.06	≤ 0.06	≤ 0.06	≤ 0.06	≤ 0.06	≤ 0.06	MIC (Bacillus anthracis [21]): ≤ 0.06 µg/mL; MIC (Bacillus anthracis [22]): ≤ 0.06 µg/mL; MIC (Bacillus anthracis [23]): ≤ 0.06 µg/mL; MIC (Bacillus anthracis [24]): ≤ 0.06 µg/mL; MIC (Bacillus anthracis [25]): ≤ 0.06 µg/mL; MIC (Bacillus anthracis [26]): ≤ 0.06 µg/mL; MIC (Bacillus anthracis [27]): ≤ 0.06 µg/mL; MIC (Bacillus anthracis [28]): ≤ 0.06 µg/mL; MIC (Bacillus anthracis [29]): ≤ 0.06 µg/mL
